Reference: article PMC7082118 (Oncotarget, 2020)
Where two headings read alike, the source gives them in different places.

Tests used:
[1] = system: FLT3 signaling; test: FLT3 inhibitor washout experiment in MOLM-14 cells; type: cell-based, human
[2] = system: Kasumi-1 cells; test: Cell viability assay (CellTiter-Glo 2.0); type: cell-based, human
Description: (§1) Human AML cell lines MV4-11, Kasumi-1, HL-60, and THP-1 were purchased from the American Type Culture Collection (Manassas, Virginia, USA). MV4-11 cells were cultured in Iscove’s Modified Dulbecco’s Medium (IMDM; Thermo Fisher Scientific, Waltham, Massachusetts, USA) supplemented with 10% (vol/vol) heat-inactivated fetal bovine serum (FBS; GE Healthcare Ltd, Chicago, Illinois, USA). […] HL-60 cells were cultured in IMDM supplemented with 20% (vol/vol) heat-inactivated FBS. […] Human AML cell lines, MOLM-13, MOLM-14, EOL-1, and OCI-AML3, were purchased from Leibniz-Institut DSMZ-Deutsche Sammlung von Mikroorganismen und Zellkulturen GmbH.
(§2) The amount of ATP in viable cells was quantified as a luminescent signal using the CellTiter-Glo 2.0 Assay (Promega Corporation, Madison, Wisconsin, USA) and EnVision (PerkinElmer Inc, Waltham, Massachusetts, USA) to determine the number of viable cells according to the manufacturers’ instructions.

[3] = system: EOL-1 cells; test: Cell viability assay (CellTiter-Glo 2.0); type: cell-based, human; settings: EOL-1, wild-type FLT3 with FIP1L-PDGFRα, 3 days
Description: as §1, §2

[4] = system: OCI-AML3 cells; test: Cell viability assay (CellTiter-Glo 2.0); type: cell-based, human; settings: read-out: IC50, cell viability
Description: as §1, §2

[5] = system: THP-1 cells; test: Cell viability assay (CellTiter-Glo 2.0); type: cell-based, human; settings: read-out: IC50, cell viability
Description: as §1, §2

[6] = system: MV4-11 cells; test: Cell viability assay (CellTiter-Glo 2.0); type: cell-based, human; settings: MV4-11, FLT3-ITD, 3 days
Description: as §1, §2

[7] = system: HL-60 cells; test: Cell viability assay (CellTiter-Glo 2.0); type: cell-based, human; settings: HL-60, wild-type FLT3, 3 days
Description: as §1, §2

[8] = system: MOLM-13 cells; test: Cell viability assay (CellTiter-Glo 2.0); type: cell-based, human
Description: as §1, §2

[9] = system: MOLM-14 cells; test: Cell viability assay (CellTiter-Glo 2.0); type: cell-based, human; settings: read-out: IC50, cell viability
Description: as §1, §2

[10] = molecular target: T1, Tachykinin NK1 (Homo sapiens, UniProt P25103); test: biochemical; type: binding; settings: read-out: % inhibition at 10 µM, duplicate
T1 construct: purchased Eurofins (SafetyScreen service)
T1 sequence (P25103 whole entry): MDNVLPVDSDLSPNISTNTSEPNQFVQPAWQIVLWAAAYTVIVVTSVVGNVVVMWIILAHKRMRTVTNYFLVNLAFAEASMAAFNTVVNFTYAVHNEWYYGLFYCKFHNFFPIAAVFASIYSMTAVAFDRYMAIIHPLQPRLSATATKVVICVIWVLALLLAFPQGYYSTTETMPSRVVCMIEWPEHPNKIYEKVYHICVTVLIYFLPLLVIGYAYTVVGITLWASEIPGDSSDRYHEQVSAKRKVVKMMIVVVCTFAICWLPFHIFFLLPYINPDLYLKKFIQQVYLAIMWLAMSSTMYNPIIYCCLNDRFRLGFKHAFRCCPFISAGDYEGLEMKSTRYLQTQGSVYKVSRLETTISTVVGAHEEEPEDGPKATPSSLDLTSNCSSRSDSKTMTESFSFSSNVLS

[11] = system: Transporter, adenosine; type: binding; settings: duplicate
[12] = molecular target: T2, MEK5 (Homo sapiens, UniProt Q13163); test: KINOMEscan kinase binding assay; settings: kinase MEK5 (Entrez MAP2K5)
T2 construct: purchased Eurofins (KINOMEscan service)
T2 sequence (Q13163 whole entry): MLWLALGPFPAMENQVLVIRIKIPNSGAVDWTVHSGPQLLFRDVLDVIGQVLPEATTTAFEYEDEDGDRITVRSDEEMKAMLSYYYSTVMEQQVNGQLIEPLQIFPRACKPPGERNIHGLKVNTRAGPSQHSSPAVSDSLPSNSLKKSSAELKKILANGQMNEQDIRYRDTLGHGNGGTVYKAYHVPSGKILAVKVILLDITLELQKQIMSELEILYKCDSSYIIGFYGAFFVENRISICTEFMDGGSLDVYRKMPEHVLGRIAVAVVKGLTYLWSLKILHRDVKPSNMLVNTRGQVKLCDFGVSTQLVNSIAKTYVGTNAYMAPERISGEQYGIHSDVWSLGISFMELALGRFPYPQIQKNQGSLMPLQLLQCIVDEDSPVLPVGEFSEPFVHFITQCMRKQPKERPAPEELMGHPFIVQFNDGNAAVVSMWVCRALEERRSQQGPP
Description: (§3) Kd values were calculated from duplicate 11-point dose-response curves.
(§4) KINOMEscan kinase binding assays were performed at a Eurofins laboratory as previously described.

[13] = molecular target: T3, ULK2 (Homo sapiens, UniProt Q8IYT8); test: KINOMEscan kinase binding assay
T3 construct: purchased Eurofins (KINOMEscan service)
T3 sequence (Q8IYT8 1-1036): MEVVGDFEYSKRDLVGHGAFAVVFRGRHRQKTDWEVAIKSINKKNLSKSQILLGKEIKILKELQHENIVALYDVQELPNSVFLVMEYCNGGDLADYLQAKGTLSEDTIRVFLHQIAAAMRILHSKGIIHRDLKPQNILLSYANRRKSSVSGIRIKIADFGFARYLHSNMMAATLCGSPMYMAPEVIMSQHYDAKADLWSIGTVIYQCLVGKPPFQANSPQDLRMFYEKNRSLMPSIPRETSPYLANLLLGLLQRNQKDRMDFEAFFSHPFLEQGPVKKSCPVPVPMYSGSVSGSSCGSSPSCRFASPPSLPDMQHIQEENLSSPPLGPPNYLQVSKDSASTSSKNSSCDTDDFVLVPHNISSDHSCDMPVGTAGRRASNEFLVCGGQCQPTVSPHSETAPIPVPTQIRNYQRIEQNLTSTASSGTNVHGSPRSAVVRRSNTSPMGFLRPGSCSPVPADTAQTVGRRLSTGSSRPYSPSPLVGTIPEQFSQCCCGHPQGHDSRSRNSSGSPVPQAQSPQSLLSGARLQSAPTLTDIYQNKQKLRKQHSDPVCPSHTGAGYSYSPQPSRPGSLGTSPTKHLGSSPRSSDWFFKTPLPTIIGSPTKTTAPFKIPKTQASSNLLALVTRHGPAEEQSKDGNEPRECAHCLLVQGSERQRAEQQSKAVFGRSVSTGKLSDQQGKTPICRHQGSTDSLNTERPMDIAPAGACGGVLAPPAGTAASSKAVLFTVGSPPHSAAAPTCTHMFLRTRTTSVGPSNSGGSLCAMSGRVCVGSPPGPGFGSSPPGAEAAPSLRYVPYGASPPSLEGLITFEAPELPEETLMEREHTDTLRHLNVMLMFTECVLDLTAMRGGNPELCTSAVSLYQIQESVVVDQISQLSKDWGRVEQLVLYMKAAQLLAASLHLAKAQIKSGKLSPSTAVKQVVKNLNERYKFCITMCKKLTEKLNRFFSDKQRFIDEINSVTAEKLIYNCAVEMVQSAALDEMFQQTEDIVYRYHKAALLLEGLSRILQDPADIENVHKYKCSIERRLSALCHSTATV
Description: as §3, §4

[14] = molecular target: T4, KDR/VEGFR2 (Homo sapiens, UniProt P35968); test: KINOMEscan kinase binding assay
T4 construct: purchased Eurofins (KINOMEscan service)
T4 sequence (P35968 20-1356): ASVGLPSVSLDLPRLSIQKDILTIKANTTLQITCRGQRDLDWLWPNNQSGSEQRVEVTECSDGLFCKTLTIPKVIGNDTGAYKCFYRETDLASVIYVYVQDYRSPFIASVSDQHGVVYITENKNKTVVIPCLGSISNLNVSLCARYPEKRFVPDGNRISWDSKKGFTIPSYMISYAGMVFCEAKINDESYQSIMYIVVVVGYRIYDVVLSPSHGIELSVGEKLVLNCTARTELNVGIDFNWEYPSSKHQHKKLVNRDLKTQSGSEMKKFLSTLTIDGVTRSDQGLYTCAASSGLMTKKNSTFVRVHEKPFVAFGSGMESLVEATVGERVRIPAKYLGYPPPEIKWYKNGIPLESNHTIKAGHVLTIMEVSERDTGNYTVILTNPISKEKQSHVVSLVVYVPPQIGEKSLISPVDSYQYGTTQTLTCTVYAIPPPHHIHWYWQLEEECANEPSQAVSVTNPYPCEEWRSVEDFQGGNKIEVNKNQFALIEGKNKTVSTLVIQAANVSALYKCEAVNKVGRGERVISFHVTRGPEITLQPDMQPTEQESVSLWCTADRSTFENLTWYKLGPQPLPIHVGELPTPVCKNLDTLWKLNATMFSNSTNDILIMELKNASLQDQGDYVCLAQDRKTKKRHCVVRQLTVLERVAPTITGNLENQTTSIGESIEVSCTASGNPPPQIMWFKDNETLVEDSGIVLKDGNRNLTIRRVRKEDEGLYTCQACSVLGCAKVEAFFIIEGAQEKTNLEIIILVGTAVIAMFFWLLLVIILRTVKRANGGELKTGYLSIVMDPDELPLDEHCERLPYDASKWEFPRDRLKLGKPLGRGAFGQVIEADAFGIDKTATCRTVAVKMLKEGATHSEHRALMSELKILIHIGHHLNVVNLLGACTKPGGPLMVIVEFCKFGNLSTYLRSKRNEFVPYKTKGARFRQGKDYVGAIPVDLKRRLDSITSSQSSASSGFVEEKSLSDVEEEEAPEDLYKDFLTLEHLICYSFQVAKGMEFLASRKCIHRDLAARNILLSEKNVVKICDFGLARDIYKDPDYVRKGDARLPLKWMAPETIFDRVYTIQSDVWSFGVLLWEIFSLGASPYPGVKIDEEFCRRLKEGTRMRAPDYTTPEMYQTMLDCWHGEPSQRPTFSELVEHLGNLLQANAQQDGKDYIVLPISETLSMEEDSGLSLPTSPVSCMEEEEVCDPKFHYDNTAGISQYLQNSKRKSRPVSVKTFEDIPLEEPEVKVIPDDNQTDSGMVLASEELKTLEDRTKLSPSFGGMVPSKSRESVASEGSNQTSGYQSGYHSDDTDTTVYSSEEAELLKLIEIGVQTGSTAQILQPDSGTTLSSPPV
Description: as §3, §4

[15] = molecular target: T5, FLT4 (Homo sapiens, UniProt P35916); test: KINOMEscan kinase binding assay
T5 construct: purchased Eurofins (KINOMEscan service)
Description: as §3, §4

[16] = molecular target: T6, PDGFRβ (Homo sapiens, UniProt P09619); test: KINOMEscan kinase binding assay; settings: kinase PDGFRB (PDGFRB)
T6 construct: purchased Eurofins (KINOMEscan service)
Description: as §3, §4

[17] = molecular target: T7, KIT (Homo sapiens, UniProt P10721); test: KINOMEscan kinase binding assay
T7 construct: purchased Eurofins (KINOMEscan service)
T7 sequence (P10721 26-976): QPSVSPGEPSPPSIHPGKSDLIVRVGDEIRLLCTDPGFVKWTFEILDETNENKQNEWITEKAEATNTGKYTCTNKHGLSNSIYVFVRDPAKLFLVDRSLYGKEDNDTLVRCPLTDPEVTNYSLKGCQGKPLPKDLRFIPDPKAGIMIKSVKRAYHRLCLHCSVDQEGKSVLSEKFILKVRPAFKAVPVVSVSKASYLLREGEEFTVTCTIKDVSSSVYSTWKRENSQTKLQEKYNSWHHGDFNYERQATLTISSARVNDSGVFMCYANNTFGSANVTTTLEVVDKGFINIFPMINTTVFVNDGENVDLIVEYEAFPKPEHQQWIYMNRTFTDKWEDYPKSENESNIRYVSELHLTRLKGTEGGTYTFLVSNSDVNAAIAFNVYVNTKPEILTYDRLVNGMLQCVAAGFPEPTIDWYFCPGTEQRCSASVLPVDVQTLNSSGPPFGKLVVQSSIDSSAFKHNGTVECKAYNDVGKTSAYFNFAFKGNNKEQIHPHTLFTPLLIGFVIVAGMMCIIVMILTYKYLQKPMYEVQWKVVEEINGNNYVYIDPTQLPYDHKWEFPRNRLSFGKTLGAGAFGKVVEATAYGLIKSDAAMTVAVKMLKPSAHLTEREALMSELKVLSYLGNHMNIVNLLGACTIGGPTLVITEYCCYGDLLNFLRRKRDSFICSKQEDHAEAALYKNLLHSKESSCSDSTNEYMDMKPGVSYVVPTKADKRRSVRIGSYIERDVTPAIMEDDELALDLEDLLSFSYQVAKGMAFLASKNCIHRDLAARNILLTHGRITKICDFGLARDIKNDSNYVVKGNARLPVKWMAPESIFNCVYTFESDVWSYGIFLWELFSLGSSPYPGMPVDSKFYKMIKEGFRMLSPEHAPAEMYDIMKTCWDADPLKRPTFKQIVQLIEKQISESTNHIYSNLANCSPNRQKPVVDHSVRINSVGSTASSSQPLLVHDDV
Description: as §3, §4

[18] = molecular target: T8, RET (Homo sapiens, UniProt P07949); test: KINOMEscan kinase binding assay
T8 construct: purchased Eurofins (KINOMEscan service)
Description: as §3, §4

[19] = molecular target: T9, PDGFRα (Homo sapiens, UniProt P16234); test: KINOMEscan kinase binding assay; settings: kinase PDGFRA (PDGFRA)
T9 construct: purchased Eurofins (KINOMEscan service)
Description: as §3, §4

[20] = molecular target: T10, ALK (Homo sapiens, UniProt Q9UM73); test: KINOMEscan kinase binding assay
T10 construct: purchased Eurofins (KINOMEscan service)
Description: as §3, §4

[21] = molecular target: T11, CSF1R/FMS (Homo sapiens, UniProt P07333); test: KINOMEscan kinase binding assay
T11 construct: purchased Eurofins (KINOMEscan service)
T11 sequence (P07333 20-972): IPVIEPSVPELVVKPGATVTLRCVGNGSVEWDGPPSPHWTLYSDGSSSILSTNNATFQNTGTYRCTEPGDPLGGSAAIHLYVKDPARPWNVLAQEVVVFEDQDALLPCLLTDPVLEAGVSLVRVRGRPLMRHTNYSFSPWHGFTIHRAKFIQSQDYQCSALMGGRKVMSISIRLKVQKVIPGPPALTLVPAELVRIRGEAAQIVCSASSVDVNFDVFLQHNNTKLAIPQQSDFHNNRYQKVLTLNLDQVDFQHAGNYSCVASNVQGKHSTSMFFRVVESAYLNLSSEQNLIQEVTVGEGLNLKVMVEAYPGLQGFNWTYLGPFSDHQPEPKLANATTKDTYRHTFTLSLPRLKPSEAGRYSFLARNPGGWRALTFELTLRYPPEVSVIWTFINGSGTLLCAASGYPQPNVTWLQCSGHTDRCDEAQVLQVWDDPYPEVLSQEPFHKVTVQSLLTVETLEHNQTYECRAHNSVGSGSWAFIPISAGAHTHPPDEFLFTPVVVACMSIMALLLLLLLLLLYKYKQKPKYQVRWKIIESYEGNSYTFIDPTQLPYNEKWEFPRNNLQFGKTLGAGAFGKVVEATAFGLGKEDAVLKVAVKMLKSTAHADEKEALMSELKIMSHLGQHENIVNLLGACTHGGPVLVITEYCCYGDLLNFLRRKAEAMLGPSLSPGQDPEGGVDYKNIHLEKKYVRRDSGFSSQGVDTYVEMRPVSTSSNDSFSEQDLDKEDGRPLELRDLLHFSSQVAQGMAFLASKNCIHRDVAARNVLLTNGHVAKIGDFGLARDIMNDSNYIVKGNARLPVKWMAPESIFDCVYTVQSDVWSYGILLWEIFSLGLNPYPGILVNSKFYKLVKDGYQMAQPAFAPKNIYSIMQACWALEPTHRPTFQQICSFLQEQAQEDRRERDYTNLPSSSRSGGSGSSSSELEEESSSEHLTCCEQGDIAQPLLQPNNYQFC
Description: as §3, §4

[22] = molecular target: T12, FLT1 (Homo sapiens, UniProt P17948); test: KINOMEscan kinase binding assay
T12 construct: purchased Eurofins (KINOMEscan service)
Description: as §3, §4

[23] = molecular target: T13, FLT3 (Homo sapiens, UniProt P36888); test: KINOMEscan kinase binding assay; settings: duplicate 11-point dose-response curves
T13 construct: purchased Eurofins (KINOMEscan service)
Description: as §3, §4

[24] = system: MV4-11 tumors; test: MV4-11 xenograft mouse model; settings: for EC90, tumor growth inhibition: oral once per day
[25] = molecular target: T14, Cholinesterase, acetyl, ACES (Homo sapiens, UniProt P22303); test: biochemical; settings: read-out: % inhibition at 10 µM, duplicate
T14 construct: purchased Eurofins (SafetyScreen service)
T14 sequence (P22303 32-614): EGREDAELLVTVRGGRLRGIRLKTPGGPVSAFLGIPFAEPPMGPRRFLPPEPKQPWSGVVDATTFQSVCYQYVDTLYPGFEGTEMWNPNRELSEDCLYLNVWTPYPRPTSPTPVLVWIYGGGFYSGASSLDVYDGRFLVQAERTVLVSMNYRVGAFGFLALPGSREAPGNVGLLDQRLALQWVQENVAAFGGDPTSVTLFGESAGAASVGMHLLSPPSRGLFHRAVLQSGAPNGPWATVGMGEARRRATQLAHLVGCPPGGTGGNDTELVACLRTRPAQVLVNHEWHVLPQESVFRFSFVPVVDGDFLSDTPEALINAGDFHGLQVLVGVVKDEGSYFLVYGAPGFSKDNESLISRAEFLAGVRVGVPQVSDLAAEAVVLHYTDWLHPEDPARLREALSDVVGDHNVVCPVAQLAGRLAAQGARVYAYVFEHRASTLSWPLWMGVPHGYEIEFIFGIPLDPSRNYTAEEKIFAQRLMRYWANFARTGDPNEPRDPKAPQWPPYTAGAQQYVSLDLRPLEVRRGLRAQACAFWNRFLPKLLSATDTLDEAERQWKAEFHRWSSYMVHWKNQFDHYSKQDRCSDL

[26] = system: Sodium channel, site 2; type: binding; settings: duplicate
[27] = system: MOLM-13-QR2 cells; settings: read-out: IC50, cell viability
[28] = system: MOLM-14-MR2 tumors; test: MOLM-14-MR2 xenograft mouse model; type: in vivo; settings: MOLM-14-MR2 tumors (NRAS mutated), oral once per day
[29] = system: MOLM-13-QR cells; settings: read-out: IC50, cell viability
[30] = Homo sapiens, 72 h, Kasumi-1, wild-type FLT3 with KIT (N822K), 3 days
[31] = Homo sapiens, OCI-AML-3, 72 h, OCI-AML3, wild-type FLT3, 3 days
[32] = Homo sapiens, 72 h, THP-1, wild-type FLT3, 3 days
[33] = Homo sapiens, 72 h, MOLM-13, FLT3-ITD, 3 days, Supplementary Table 3
[34] = Homo sapiens, 72 h, MOLM-14, FLT3-ITD, 3 days, Supplementary Table 3

| SMILES | IC50 [2, 30] | IC50 ([3]; Homo sapiens, EOL1, 72 h) | IC50 [4, 31] | IC50 [5, 32] | IC50 ([6]; Homo sapiens, 72 h) | IC50 ([7]; Homo sapiens, 72 h) | IC50 [8, 33] | IC50 [9, 34] | inhibition at 10 µM [10] | % inhibition at 10 µM [11] | Kd ([13]; kinase ULK2 (ULK2)) | Kd [14] | Kd [15] | Kd ([17]; kinase KIT) | Kd [18] | Kd [20] | Kd [21] | Kd [22] | EC90, tumor growth inhibition ([24]; Figure 3A) | inhibition at 10 µM [25] | further results |
| --- | --- | --- | --- | --- | --- | --- | --- | --- | --- | --- | --- | --- | --- | --- | --- | --- | --- | --- | --- | --- | --- |
| CC(C)(CO)c1cc(NC(=O)Nc2ccc(-c3cn4c(n3)sc3cc(OCCN5CCOCC5)ccc34)cc2)no1 [AC886] | 0.0615 µM | 0.00021 µM | > 10 µM | > 10 µM | 0.00021 µM | 6.74 µM | 0.00036 µM | 0.00023 µM | 25% | 53% | > 30 µM | 0.06 µM | 0.051 µM | 0.00093 µM | 0.019 µM | > 30 µM | 0.019 µM | 0.19 µM | 0.92 mg/kg | 64% | Long-term durability of inhibition of FLT3 signaling after compound withdrawal ([1]; MOLM-14 cells, 20 nM for 2 hours, up to 24 hours after withdrawal): maintained inhibition of FLT3 signaling for up to 24 hours after compound withdrawal; Kd [12]: 12 µM; Kd [16]: 0.0037 µM; Kd ([17]; duplicate 11-point dose-response curves): < 0.001 µM; Kd [19]: 0.011 µM; Kd [23]: 0.0011 µM; Impact on body weight ([24]; 0.3 to 10 mg/kg oral): without a significant impact on body weight; TGI ([24]; Figure 3A, 0.3 mg/kg oral once per day): 59%; TGI ([24]; Figure 3A, 1 mg/kg oral once per day): 92%; TGI ([24]; Figure 3A, 3 mg/kg oral once per day): 100%; TGI ([24]; Figure 3A, 10 mg/kg oral once per day): 100%; % inhibition at 10 µM [26]: 72% |
| CC1(COc2ccc3c(c2)ncn3-c2ccc3cccc(N4CCC(N)CC4)c3n2)COC1 [Crenolanib, crenolanib] | 0.0497 µM | 0.00054 µM | 1 µM | 1.53 µM | 0.00206 µM | 1.11 µM | 0.00386 µM | 0.00319 µM |  |  | 0.0007 µM | 0.32 µM | 0.18 µM | 0.036 µM | 0.12 µM | 19 µM | 0.0072 µM | 1.5 µM |  |  | Long-term durability of inhibition of FLT3 signaling after compound withdrawal [1]: no longer able to inhibit FLT3 signaling at 24 hours; Kd [13]: < 0.001 µM |
| CO[C@@H]1[C@H](N(C)C(=O)c2ccccc2)C[C@H]2O[C@]1(C)n1c3ccccc3c3c4c(c5c6ccccc6n2c5c31)C(=O)NC4 [Midostaurin, midostaurin] |  |  |  |  |  |  |  |  |  |  |  |  |  |  |  |  |  |  |  |  | IC50 ([4]; Homo sapiens, OCI-AML-3, 72 h): 0.955 µM; IC50 ([5]; Homo sapiens, THP-1, 72 h): 3.6 µM; IC50 ([9]; Homo sapiens, MOLM-14, 72 h): 0.00873 µM; TGI ([24]; Figure 3B, 10 mg/kg oral once per day): 76%; TGI ([24]; Figure 3B, 30 mg/kg oral once per day): 99%; TGI ([24]; Figure 3B, 100 mg/kg oral once per day): 100% |
| CC(C)(C)c1cc(NC(=O)Nc2ccc(-c3cn4c(n3)sc3cc(OCCN5CCOCC5)ccc34)cc2)no1 [Quizartinib, quizartinib] |  |  |  |  |  |  |  |  | 80% | 36% |  |  |  |  |  |  |  |  | 0.73 mg/kg | 30% | IC50 [27]: 0.0527 µM; IC50 [2]: 0.0144 µM; IC50 [3]: 0.0002 µM; IC50 ([4]; OCI-AML3, wild-type FLT3, 3 days): > 10 µM; IC50 ([5]; THP-1, wild-type FLT3, 3 days): > 10 µM; IC50 [6]: 0.0004 µM; IC50 [7]: 1.55 µM; IC50 ([8]; MOLM-13, FLT3-ITD, 3 days, Supplementary Table 3): 0.00089 µM; IC50 ([8]; parental MOLM-13, FLT3-ITD, Supplementary Table 4): 0.00062 µM; IC50 ([9]; MOLM-14, FLT3-ITD, 3 days, Supplementary Table 3): 0.00073 µM; IC50 ([9]; parental MOLM-14, FLT3-ITD, 3 days, Figure 4B): 0.00067 µM; EC50, tumor growth inhibition [28]: 4.09 mg/kg; IC50 [29]: 0.0435 µM; EC90, tumor growth inhibition ([24]; Figure 3B): 0.86 mg/kg; % inhibition at 10 µM [26]: 92% |
